Where two headings read alike, the source gives them in different places.
What was measured:
[1] = molecular target: T1, GRK1 (Bos taurus, UniProt P28327); test: DSF retest (confirmation), GRK1; assay type: binding, bovine; conditions: for GRK1 Tm: 0.2 mg mL^–1 kinase; for GRK1 ΔTm: relative to intrinsic melting point of the kinase
T1 construct: Bovine GRK1_1–535, bovine and human GRK2S670A; made in house
T1 sequence (P28327 1-535): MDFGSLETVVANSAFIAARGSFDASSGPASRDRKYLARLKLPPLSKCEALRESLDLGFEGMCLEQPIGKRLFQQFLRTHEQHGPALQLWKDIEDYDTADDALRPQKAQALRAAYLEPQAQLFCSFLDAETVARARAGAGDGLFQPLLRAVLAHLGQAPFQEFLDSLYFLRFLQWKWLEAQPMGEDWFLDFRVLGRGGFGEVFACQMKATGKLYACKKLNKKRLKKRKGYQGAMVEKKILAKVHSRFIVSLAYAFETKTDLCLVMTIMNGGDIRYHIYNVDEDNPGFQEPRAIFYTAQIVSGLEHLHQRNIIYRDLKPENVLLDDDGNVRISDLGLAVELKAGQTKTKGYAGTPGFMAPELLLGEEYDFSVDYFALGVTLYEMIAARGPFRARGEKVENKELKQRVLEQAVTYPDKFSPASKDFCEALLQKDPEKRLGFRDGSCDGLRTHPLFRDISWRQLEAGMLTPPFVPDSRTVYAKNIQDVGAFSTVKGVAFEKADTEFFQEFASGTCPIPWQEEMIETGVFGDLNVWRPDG

[2] = molecular target: T2, protein kinase A (PKA) (Mus musculus, UniProt P05132); test: DSF retest (confirmation), PKA; assay type: binding; conditions: for PKA Tm: 0.2 mg mL^–1 kinase; for PKA ΔTm: relative to intrinsic melting point of the kinase
T2 construct: His tag (inferred from pET15b vector and Ni-NTA column) (N); host or cells: E. coli Rosetta(DE3)pLysS
Protocol: Fourteen compounds (Figure 1a–c), including all GRK2 hits except staurosporine, and the most stabilizing pyrrolopyrimidine-containing compounds were obtained from GSK and retested using DSF on GRKs representing each vertebrate subfamily (GRK1, 2, and 5) (Table 1). […] The ability of these compounds to shift the Tm of the related AGC family kinase member protein kinase A (PKA) was also assessed (Table 1). In no case was ΔTm greater for PKA than for one of the tested GRKs. […]. There was no correlation for GRK1 (Figure 2c).
DSF was conducted using a ThermoFluor plate reader (Johnson & Johnson) in a buffer containing 20 mM HEPES, pH 7.0, 5 mM MgCl2, 2 mM DTT, and 1 mM CHAPS with 0.2 mg mL^–1 final concentration of GRK or PKA and 100 μM 1-anilinonaphthalene-8-sulfonic acid.[14]

[3] = system: GRK1, 2, and 5 and PKA; test: Ssel selectivity score calculated from inhibition of GRK1, 2, 5 and PKA; conditions: selectivity score from inhibition of GRK1, 2, 5 and PKA; <0.5 selective
[4] = molecular target: T1, GRK1; test: In vitro phosphorylation assay (tubulin, 5 μM ATP), GRK1; assay type: biochemical, bovine
[5] = molecular target: T3, PKA (Mus musculus, UniProt P05132); test: PKA inhibition assay (ADP-Glo, CREBtide, 100 μM ATP); assay type: biochemical
T3 construct: His tag (inferred from pET15b vector and Ni-NTA column) (N); host or cells: E. coli Rosetta(DE3)pLysS

[6] = molecular target: T4, GRK5 (Bos taurus, UniProt P43249); test: In vitro phosphorylation assay (tubulin, 5 μM ATP), GRK5; assay type: biochemical, bovine
T4 construct: when using full-length kinases as the receptor[37] instead of isolated kinase domains; made in house

[7] = molecular target: T5, bovine GRK5 (Bos taurus, UniProt P43249); test: Primary DSF inhibitor screen, GRK5; assay type: binding; conditions: 10 μM compound; for ΔTm at 10 µM: read-out: ΔTm, primary screen, GRK5
T5 construct: when using full-length kinases as the receptor[37] instead of isolated kinase domains; made in house

[8] = molecular target: T4, GRK5; test: DSF retest (confirmation), GRK5; assay type: binding, bovine; conditions: for GRK5 Tm: 0.2 mg mL^–1 kinase; for GRK5 ΔTm: relative to intrinsic melting point of the kinase
[9] = molecular target: T6, GRK2 (Bos taurus, UniProt P21146, S670A); test: In vitro phosphorylation assay (tubulin, 5 μM ATP), GRK2; assay type: biochemical, bovine; conditions: for IC50: read-out: GRK2 log IC50 (converted)
T6 construct: made in house
T6 sequence (P21146 1-689 S670A): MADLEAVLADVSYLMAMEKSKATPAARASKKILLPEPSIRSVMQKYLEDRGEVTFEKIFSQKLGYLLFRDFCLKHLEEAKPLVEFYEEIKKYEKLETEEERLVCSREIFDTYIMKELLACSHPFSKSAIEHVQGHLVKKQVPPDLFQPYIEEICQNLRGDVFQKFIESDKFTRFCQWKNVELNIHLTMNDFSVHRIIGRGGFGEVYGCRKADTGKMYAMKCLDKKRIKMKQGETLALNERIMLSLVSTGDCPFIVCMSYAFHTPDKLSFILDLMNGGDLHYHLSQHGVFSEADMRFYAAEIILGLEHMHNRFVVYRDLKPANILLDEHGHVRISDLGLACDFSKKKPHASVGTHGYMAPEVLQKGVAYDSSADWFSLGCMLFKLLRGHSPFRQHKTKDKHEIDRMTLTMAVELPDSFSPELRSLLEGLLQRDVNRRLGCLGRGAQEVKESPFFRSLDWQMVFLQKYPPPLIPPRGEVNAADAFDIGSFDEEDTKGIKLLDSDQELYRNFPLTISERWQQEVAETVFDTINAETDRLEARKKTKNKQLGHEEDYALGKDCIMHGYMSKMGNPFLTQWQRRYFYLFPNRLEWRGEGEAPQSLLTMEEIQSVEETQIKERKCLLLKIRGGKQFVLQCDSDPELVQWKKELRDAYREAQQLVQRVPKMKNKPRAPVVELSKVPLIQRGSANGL

[10] = molecular target: T7, GRK2 (Homo sapiens, UniProt P25098, S670A); test: DSF retest (confirmation), GRK2; assay type: binding; conditions: for GRK2 Tm: 0.2 mg mL^–1 kinase; for GRK2 ΔTm: relative to intrinsic melting point of the kinase
T7 construct: made in house
T7 sequence (P25098 1-689 S670A): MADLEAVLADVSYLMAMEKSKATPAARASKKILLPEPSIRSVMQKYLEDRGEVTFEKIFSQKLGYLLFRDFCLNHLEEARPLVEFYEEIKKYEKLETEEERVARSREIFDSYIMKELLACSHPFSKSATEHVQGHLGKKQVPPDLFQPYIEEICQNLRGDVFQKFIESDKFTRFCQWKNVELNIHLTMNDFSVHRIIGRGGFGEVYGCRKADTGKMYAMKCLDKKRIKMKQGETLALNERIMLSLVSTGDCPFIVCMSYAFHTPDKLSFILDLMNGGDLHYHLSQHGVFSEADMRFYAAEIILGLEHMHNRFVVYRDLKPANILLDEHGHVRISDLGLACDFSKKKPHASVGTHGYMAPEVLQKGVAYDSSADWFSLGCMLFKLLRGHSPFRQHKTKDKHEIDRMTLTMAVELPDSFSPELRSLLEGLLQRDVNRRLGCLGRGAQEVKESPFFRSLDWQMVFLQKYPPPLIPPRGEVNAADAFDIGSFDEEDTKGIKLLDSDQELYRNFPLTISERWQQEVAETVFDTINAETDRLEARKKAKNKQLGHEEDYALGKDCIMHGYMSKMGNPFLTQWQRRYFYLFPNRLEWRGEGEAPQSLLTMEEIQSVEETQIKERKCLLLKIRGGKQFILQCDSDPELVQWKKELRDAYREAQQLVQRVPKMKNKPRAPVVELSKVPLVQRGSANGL

[11] = molecular target: T8, human GRK2S670A (Homo sapiens, UniProt P25098, S670A); test: Primary DSF (differential scanning fluorimetry) inhibitor screen, GRK2; assay type: binding; conditions: 10 μM compound; for ΔTm at 10 µM: read-out: ΔTm, primary screen, GRK2
T8 construct: when using full-length kinases as the receptor[37] instead of isolated kinase domains; made in house
T8 sequence (P25098 1-689 S670A): T7 sequence (P25098 1-689 S670A)

[12] = read-out: GRK1 log IC50 (converted)
[13] = logarithm of IC50 (−3.3 corresponds to 0.5 mM, footnote c), 438 nM PKA, 100 μM ATP, CREBtide, read-out: PKA log IC50 (converted)
[14] = 2 μM kinase, relative to DMSO control
[15] = rank ordering of compounds in primary DSF screen

T5 sequence (P43249 whole entry, the tested form may be a part): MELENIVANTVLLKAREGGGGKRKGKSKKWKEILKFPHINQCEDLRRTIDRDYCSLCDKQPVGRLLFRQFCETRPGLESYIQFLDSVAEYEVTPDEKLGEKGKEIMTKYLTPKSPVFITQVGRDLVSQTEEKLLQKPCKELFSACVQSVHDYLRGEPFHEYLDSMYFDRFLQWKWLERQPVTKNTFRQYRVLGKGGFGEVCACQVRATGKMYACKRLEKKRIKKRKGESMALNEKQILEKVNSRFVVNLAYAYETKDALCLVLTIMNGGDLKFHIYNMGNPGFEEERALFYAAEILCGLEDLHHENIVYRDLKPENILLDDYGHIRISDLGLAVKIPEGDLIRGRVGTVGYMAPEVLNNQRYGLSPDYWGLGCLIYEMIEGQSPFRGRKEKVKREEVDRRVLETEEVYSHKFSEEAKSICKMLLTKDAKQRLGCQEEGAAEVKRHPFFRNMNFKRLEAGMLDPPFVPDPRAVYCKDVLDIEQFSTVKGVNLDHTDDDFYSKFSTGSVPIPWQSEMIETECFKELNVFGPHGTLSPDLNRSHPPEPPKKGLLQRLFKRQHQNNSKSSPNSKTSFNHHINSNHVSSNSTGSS
T4 sequence (P43249 whole entry, the tested form may be a part): as above

GRK1 Tm [1]	GRK1 ΔTm [1]	PKA Tm [2]	PKA ΔTm [2]	IC50 [4, 12]	IC50 [5, 13]	GRK5 fold (increase in potency relative to paroxetine) [6]	ΔTm at 10 µM [7, 14]	GRK5 Tm [8]	GRK5 ΔTm [8]	IC50 [9]	GRK2 fold (increase in potency relative to paroxetine) [9]	GRK2 Tm [10]	GRK2 ΔTm [10]	ΔTm at 10 µM [11, 14]	SMILES	Ssel [3]	other results
23.4 °C	3.5 °C	49.5 °C	4.1 °C	> 1000 µM	63.1 µM	1.6 fold	3.55 °C	28.1 °C	1.3 °C	3.16 µM	0.40 fold	48.3 °C	10.7 °C	4.83 °C	CC1=C(C(=O)Nc2ccc3[nH]ncc3c2)C(c2ccc(Cl)c(Cl)c2)CC(=O)N1 (stereo not drawn) [GSK299115A]	0.360	IC50 ([5]; read-out: IC50 against PKA): < 100 µM; ΔTm, primary screen, GRK2 [11, 14]: 4.8 °C; rank in the primary screen, GRK2 [11, 15]: 4
–	–	48.5 °C	3.1 °C	–	> 501 µM	–	6.35 °C	29.3 °C	2.5 °C	7.94 µM	–	42.4 °C	4.9 °C	3.29 °C	CCCN1CCC(c2ccc(Nc3nc(Nc4cc(F)ccc4C(N)=O)c4cc[nH]c4n3)c(OC)c2)CC1 [GSK1326255A]	0.586	IC50 [4]: 501 µM
18.5 °C	–1.4 °C	46.6 °C	1.2 °C	0.631 µM	> 501 µM	40 fold	8.36 °C	32.6 °C	5.8 °C	20 µM	0.063 fold	40.6 °C	3.0 °C	–	COc1cc2c(cc1Nc1nc(Nc3ccsc3C(N)=O)c3cc[nH]c3n1)N(C(=O)CN(C)C)CCC2 [GSK2110236A]	0.561	selectivity for GRK5 over GRK2 ([6]; from IC50 values of Table 2): 6 fold; IC50 ([6]; read-out: GRK5 log IC50 (converted)): 3.16 µM; ΔTm, primary screen, GRK5 [7, 14]: 8.3 °C; rank in the primary screen, GRK5 [7, 15]: 7; GRK1 fold (increase in potency relative to paroxetine) ([4]; relative to paroxetine): 631 fold

SMILES	GRK1 Tm [1]	GRK1 ΔTm [1]	PKA Tm [2]	PKA ΔTm [2]	IC50 [4, 12]	IC50 [5, 13]	GRK5 fold (increase in potency relative to paroxetine) [6]	ΔTm at 10 µM [7, 14]	GRK5 Tm [8]	GRK5 ΔTm [8]	IC50 [9]	GRK2 fold (increase in potency relative to paroxetine) [9]	GRK2 Tm [10]	GRK2 ΔTm [10]	ΔTm at 10 µM [11, 14]	Ssel [3]	other results
CC1=C(C(=O)Nc2ccc3[nH]ncc3c2)C(c2ccc(F)cc2)NC(=O)N1 (stereo not drawn) [GSK180736A]	25.3 °C	5.4 °C	49.2 °C	3.8 °C	> 1000 µM	–	–	–	–	–	–	–	–	–	–	0.022	–

Reference: publication PMC4301037, “Identification and Structure–Function Analysis of Subfamily Selective G Protein-Coupled Receptor Kinase Inhibitors” (ACS Chemical Biology, 2014)
